{"source": "patent US6803198B2", "about": "“Carbamate-derivatized nucleosides and oligonucleosides” (ISIS Pharmaceuticals, Inc., priority 1996, dated 2004)", "key": {"[1]": {"system": "VCAM-1", "assay": "VCAM-1 expression in cell culture (target specificity control)", "format": "cell-based, mouse", "conditions": "isotype protein VCAM-1", "text": "Cholesterol-oligonucleotide assays for ICAM-1 are done in the bEnd.3 cell line, a brain endothelioma using Opti-MEM, trypsin-EDTA and DMEM with high glucose (all from Gibco-BRL, Grand Island, N.Y.), Dulbecco's PBS (Irvine Scientific, Irvine, Calif.), sterile, 12 well tissue culture plates and Facsflow solution (from Becton Dickinson, Mansfield, Mass.), ultrapure formaldehyde (Polysciences, Warrington, Pa.), recombinant human TNF-α (R&D Systems, Minneapolis, Minn., mouse interferon-γ (Genzyme, Cambridge, Mass.), and Fraction V, BSA (Sigma, St. Louis, Mo.). The mouse ICAM-1-PE, VCAM-1-FITC, hamster IgG-FITC and rat IgG2α-PE antibodies were purchased from Pharmingen (San Diego, Calif.). Zeta-Probe nylon blotting membrane was purchased from Bio-Rad (Richmond, Calif.). QuickHyb solution was purchased from Stratagene (La Jolla, Calif.). A cDNA labeling kit, Prime-a-Gene, was purchased from ProMega (Madison, Wis.). NAP-5 columns were purchased from Pharmacia (Uppsala, Sweden). Cells are grown to approximately 75% confluency in 12 well plates with DMEM containing 4.5 g/L glucose and 10% FBS. […] Cells are analyzed on a Becton Dickinson FACScan. Results are expressed as percentage of control expression, which is calculated as follows: [((CAM expression for oligonucleotide-treated cytokine induced cells)−(basal CAM expression))/((cytokine-induced CAM expression)−(basal CAM expression))]×100. […]"}, "[2]": {"conditions": "mouse, in vivo", "method": "The effect of cholesterol conjugation on the pharmacokinetic properties of the oligonucleotide is determined in mice using ^3H radiolabeled Oligonucleotide VI."}, "[3]": {"system": "ICAM-1", "assay": "Inhibition of LPS-induced ICAM-1 expression in mouse liver", "format": "in vivo, C57Bl/10 mice", "conditions": "10 mg/kg i.v. twice, 24 h and 2 h before LPS; liver RNA 4 h after LPS"}, "[4]": {"system": "ICAM-1", "assay": "ICAM-1 expression in bEnd.3 cells (flow cytometry of cell-surface protein, Northern blot of mRNA)", "format": "cell-based, mouse", "conditions": "cell culture, without any cationic lipid adjuvant", "text": "Cholesterol-oligonucleotide assays for ICAM-1 are done in the bEnd.3 cell line, a brain endothelioma using Opti-MEM, trypsin-EDTA and DMEM with high glucose (all from Gibco-BRL, Grand Island, N.Y.), Dulbecco's PBS (Irvine Scientific, Irvine, Calif.), sterile, 12 well tissue culture plates and Facsflow solution (from Becton Dickinson, Mansfield, Mass.), ultrapure formaldehyde (Polysciences, Warrington, Pa.), recombinant human TNF-α (R&D Systems, Minneapolis, Minn., mouse interferon-γ (Genzyme, Cambridge, Mass.), and Fraction V, BSA (Sigma, St. Louis, Mo.). The mouse ICAM-1-PE, VCAM-1-FITC, hamster IgG-FITC and rat IgG2α-PE antibodies were purchased from Pharmingen (San Diego, Calif.). Zeta-Probe nylon blotting membrane was purchased from Bio-Rad (Richmond, Calif.). QuickHyb solution was purchased from Stratagene (La Jolla, Calif.). A cDNA labeling kit, Prime-a-Gene, was purchased from ProMega (Madison, Wis.). NAP-5 columns were purchased from Pharmacia (Uppsala, Sweden). […]\nAfter oligonucleotide treatment, cells are detached from the plates with a short treatment of trypsin-EDTA (1-2 min.). […] Cells are analyzed on a Becton Dickinson FACScan. Results are expressed as percentage of control expression, which is calculated as follows: [((CAM expression for oligonucleotide-treated cytokine induced cells)−(basal CAM expression))/((cytokine-induced CAM expression)−(basal CAM expression))]×100. […]"}}}
{"substance": "Oligomer VI: TGC* ATC CCC CAG GCC ACC AT (P = S), C* = cholesterol carbamate nucleoside Compound 9; cholesterol conjugate of ISIS 3082", "values": [{"measurement": "inhibition of VCAM-1 expression", "setting": "[1]", "value": "neither molecule show significant inhibition"}, {"measurement": "amount of oligonucleotide in kidney, skeletal muscle and skin", "setting": "[2]", "value": "reduced in kidney, skeletal muscle and skin"}, {"measurement": "amount of oligonucleotide in liver", "setting": "[2]", "value": "more oligonucleotide is found in the liver"}, {"measurement": "retention in plasma", "setting": "[2]", "value": "retained in the plasma for longer periods of time than is ISIS-3082"}, {"measurement": "reduction of ICAM expression in liver", "setting": "[3]", "value": "40-50%"}, {"measurement": "effect on ICAM-1 expression", "setting": "[4]", "value": "inhibits ICAM-1 in a dose dependent manner"}]}
